According to US9737075B2, “Synergistic benzoxaborole-containing anti-fungicidal composition” (The Penn State Research Foundation, priority 2015, dated 2017):
Converted amounts (≈) assume the structure as drawn. Like-named read-outs stand apart in the source and are kept apart here.

How the values were obtained:
Format in all cases: cell-based
[1] = tested on: Aspergillus fumigatus; experiment: Broth microdilution MIC of individual antifungals; conditions: for MIC: read-out: Independent MIC
[2] = tested on: Botrytis cinerea B17; experiment: Broth microdilution MIC of individual antifungals; conditions: Botrytis cinerea B17, individual antifungal, 25% PDB, about 25° C., 72 hours, range over N independent triplicate studies; for MIC: read-out: Independent MIC
[3] = tested on: Mucor sp.; experiment: Broth microdilution MIC of individual antifungals; conditions: individual antifungal, 25% PDB, about 25° C., 72 hours, range over N independent triplicate studies
[4] = tested on: Alternaria solani; experiment: Broth microdilution MIC of individual antifungals; conditions: for MIC: read-out: Independent MIC
[5] = tested on: Fusarium graminearum; experiment: microbe, parasite or virus in culture; conditions: for MIC: 72 h, read-out: Independent MIC
[6] = tested on: Stachybotrys chartarum; experiment: Broth microdilution MIC of individual antifungals; conditions: individual antifungal, 25% PDB, about 25° C., 72 hours, range over N independent triplicate studies; for MIC: read-out: Independent MIC
[7] = tested on: Phytophthora pini; experiment: Broth microdilution MIC of individual antifungals; conditions: individual antifungal, 25% PDB, about 25° C., 72 hours, range over N independent triplicate studies
[8] = tested on: Pythium aphanodermatum; experiment: Broth microdilution MIC of individual antifungals; conditions: individual antifungal, 25% PDB, about 25° C., 72 hours, range over N independent triplicate studies
[9] = tested on: Penicillium chrysogenum; experiment: Broth microdilution MIC of individual antifungals; conditions: individual antifungal, 25% PDB, about 25° C., 72 hours, range over N independent triplicate studies
[10] = tested on: Mycosphaerella zeae-maydis; experiment: Broth microdilution MIC of individual antifungals; conditions: individual antifungal, 25% PDB, about 25° C., 72 hours, range over N independent triplicate studies; for MIC: Didymella maydis
[11] = tested on: Botrytis cinerea 10-1728; experiment: Broth microdilution MIC of individual antifungals; conditions: for MIC: read-out: Independent MIC
[12] = tested on: Fusarium solani f. sp. pisi (MP VI); experiment: Broth microdilution MIC of individual antifungals; conditions: Fusarium solani f. sp. pisi (MP VI), individual antifungal, 25% PDB, about 25° C., 72 hours, range over N independent triplicate studies
[13] = tested on: Aspergillus niger; experiment: Broth microdilution MIC of individual antifungals; conditions: individual antifungal, 25% PDB, about 25° C., 72 hours, range over N independent triplicate studies; for MIC: read-out: Independent MIC
[14] = tested on: Fusarium oxysporum f. sp. lycopersici; experiment: Broth microdilution MIC of individual antifungals; conditions: individual antifungal, 25% PDB, about 25° C., 72 hours, range over N independent triplicate studies
[15] = tested on: Sclerotinia homoeocarpa; experiment: Broth microdilution MIC of individual antifungals; conditions: for MIC: Clarireedia homoeocarpa, read-out: Independent MIC
[16] = tested on: Rhizopus sp.; experiment: Broth microdilution MIC of individual antifungals; conditions: Rhizopus sp., individual antifungal, 25% PDB, about 25° C., 72 hours, range over N independent triplicate studies; for MIC: Rhizopus, 72 h, read-out: Independent MIC
[17] = tested on: Aspergillus flavus; experiment: Broth microdilution MIC of individual antifungals; conditions: for MIC: read-out: Independent MIC
[18] = tested on: Fusarium oxysporum ST33; experiment: Broth microdilution MIC of individual antifungals; conditions: individual antifungal, 25% PDB, about 25° C., 72 hours, range over N independent triplicate studies
[19] = tested on: Fusarium verticillioides; experiment: Broth microdilution MIC of individual antifungals; conditions: for MIC: read-out: Independent MIC
[20] = tested on: Aureobasidium pullulans; experiment: Broth microdilution MIC of individual antifungals; conditions: individual antifungal, 25% PDB, about 25° C., 72 hours, range over N independent triplicate studies, read-out: Independent MIC
[21] = tested on: Rhizoctonia solani; experiment: Broth microdilution MIC of individual antifungals; conditions: for MIC: read-out: Independent MIC
[22] = tested on: Colletotrichum orbiculare; experiment: Broth microdilution MIC of individual antifungals; conditions: individual antifungal, 25% PDB, about 25° C., 72 hours, range over N independent triplicate studies; for MIC: read-out: Independent MIC
[23] = tested on: Candida albicans; experiment: Broth microdilution MIC of individual antifungals; conditions: individual antifungal, 25% PDB, about 25° C., 72 hours, range over N independent triplicate studies
[24] = tested on: Magnaporthe grisea; experiment: microbe, parasite or virus in culture; conditions: for MIC: Pyricularia oryzae, 72 h, read-out: Independent MIC
[25] = individual antifungal, 25% PDB, about 25° C., 72 hours, range over N independent triplicate studies
[26] = Botrytis cinerea 10-1728, individual antifungal, 25% PDB, about 25° C., 72 hours, range over N independent triplicate studies
[27] = Sclerotinia homoeocarpa, individual antifungal, 25% PDB, about 25° C., 72 hours, range over N independent triplicate studies
[28] = 101728, Botrytis cinerea 10-1728, individual antifungal, 25% PDB, about 25° C., 72 hours, range over N independent triplicate studies

Question: `CO/C=C(/C(=O)OC)c1ccccc1Oc1cc(Oc2ccccc2C#N)ncn1` [Azoxystrobin, azoxystrobin] was tested. Which “Independent MIC” value [1, 25] did it give?
Answer: (50-100) μg/mL

Question: And the “Independent MIC” value [2]?
Answer: (12.5-25)^ μg/mL

Question: What about the “Independent MIC” value [3] of the same molecule?
Answer: 200 µg/mL

Question: And the “Independent MIC” value [4, 25]?
Answer: 100 µg/mL

Question: What about the “Independent MIC” value ([5]; Fusarium graminearum, individual antifungal, 25% PDB, about 25° C., 72 hours, range over N independent triplicate studies) of the same molecule?
Answer: 400 µg/mL

Question: What about the “Independent MIC” value [6] of the same molecule?
Answer: (25-50) μg/mL

Question: And the “Independent MIC” value [7]?
Answer: 100 µg/mL

Question: And the “Independent MIC” value [8]?
Answer: 6.25 µg/mL

Question: And the “Independent MIC” value [9]?
Answer: (0.39-1.5) μg/mL

Question: And the “Independent MIC” value [10]?
Answer: 20 µg/mL

Question: And the “Independent MIC” value [11, 26]?
Answer: (110-400) μg/mL

Question: Which MIC ([12]; read-out: Independent MIC) does the source give for `Nc1ccc2c(c1)COB2O` [B2, 5-Amino-1,3-dihydro-2,1-benzoxaborol-1-ol] here?
Answer: > 32 µg/mL

Question: What about the MIC [13] of the same molecule?
Answer: > 32 µg/mL

Question: And the MIC [1, 25]?
Answer: > 32 µg/mL

Question: And the MIC [2]?
Answer: > 32 µg/mL

Question: What about the MIC [14] of the same molecule?
Answer: > 32 µg/mL

Question: And the MIC [3]?
Answer: > 32 µg/mL

Question: And the MIC [4, 25]?
Answer: > 32 µg/mL

Question: What about the MIC [15, 27] of the same molecule?
Answer: > 32 µg/mL

Question: What about the MIC [16] of the same molecule?
Answer: > 32 µg/mL

Question: And the MIC [6]?
Answer: > 32 µg/mL

Question: What about the MIC [17, 25] of the same molecule?
Answer: > 32 µg/mL

Question: What about the MIC [18] of the same molecule?
Answer: > 32 µg/mL

Question: And the MIC [19, 25]?
Answer: > 32 µg/mL

Question: What about the MIC [20] of the same molecule?
Answer: > 32 µg/mL

Question: And the MIC [10]?
Answer: > 32 µg/mL

Question: And the MIC [11, 28]?
Answer: > 32 µg/mL

Question: For `Cc1ccc(-c2c(Cl)nc(C#N)n2S(=O)(=O)N(C)C)cc1` [Cyazofamid, cyazofamid], which MIC [15, 27] is on record?
Answer: 100 µg/mL

Question: What about the MIC ([5]; Fusarium graminearum) of the same molecule?
Answer: 100 µg/mL (≈ 308 µM)

Question: And the MIC [21, 25]?
Answer: 50 to 100 µg/mL

Question: And the MIC [19, 25]?
Answer: 200 µg/mL

Question: And the MIC [22]?
Answer: 50 to 100 µg/mL

Question: What about the MIC [10] of the same molecule?
Answer: 100 µg/mL

Question: And the MIC [11, 28]?
Answer: 200 to 400 µg/mL

Question: With `CC(C1CC1)C(O)(Cn1cncn1)c1ccc(Cl)cc1` (stereo not drawn) [Cyproconazole, cyproconazole] as the molecule, how does the MIC [13] read?
Answer: 25 µg/mL

Question: And the MIC [1, 25]?
Answer: 12.5 to 25 µg/mL

Question: What about the MIC [3] of the same molecule?
Answer: 100 to 200 µg/mL

Question: What about the MIC [15, 27] of the same molecule?
Answer: 1.56 to 3.12 µg/mL

Question: What about the MIC [16] of the same molecule?
Answer: 12.5 to 50 µg/mL

Question: What about the MIC [21, 25] of the same molecule?
Answer: 6.25 to 12.5 µg/mL

Question: And the MIC [17, 25]?
Answer: 50 to 100 µg/mL

Question: What about the MIC [19, 25] of the same molecule?
Answer: 3 to 3.12 µg/mL

Question: What about the MIC ([9]; read-out: Independent MIC) of the same molecule?
Answer: 100 µg/mL

Question: And the MIC ([23]; read-out: Independent MIC)?
Answer: 100 to 400 µg/mL

Question: What about the MIC [22] of the same molecule?
Answer: 6.25 to 12.5 µg/mL

Question: And the MIC [10]?
Answer: 3.12 to 6 µg/mL

Question: And the MIC [11, 28]?
Answer: 0.78 to 2 µg/mL

Question: What does the source list for `CCOP(=O)(Sc1ccccc1)Sc1ccccc1` [Edifenphos, edifenphos]?
Answer: MIC ([1]; 72 h): 200 µg/mL; MIC [3]: 50 to 100 µg/mL; MIC ([4]; 72 h): 200 µg/mL; MIC ([15]; 72 h): 3.12 to 6.25 µg/mL; MIC ([21]; 72 h): 200 to 400 µg/mL; MIC [7]: 100 µg/mL; MIC ([19]; 72 h): 200 to 400 µg/mL; MIC [24]: 6.25 µg/mL (≈ 20.1 µM); MIC [10]: 200 to 400 µg/mL; MIC ([11]; Botrytis cinerea, 101728, 72 h): 100 to 200 µg/mL

Question: How did the MIC [1, 25] turn out when `CC1(C(=O)Nc2ccc(O)c(Cl)c2Cl)CCCCC1` [Fenhexamid, fenhexamid] was run?
Answer: 400 µg/mL

Question: And the MIC [2]?
Answer: 4 µg/mL

Question: What about the MIC [3] of the same molecule?
Answer: 100 µg/mL

Question: And the MIC [4, 25]?
Answer: 100 to 200 µg/mL

Question: And the MIC [15, 27]?
Answer: 64 µg/mL

Question: And the MIC ([5]; Fusarium graminearum)?
Answer: 25 to 50 µg/mL (≈ 82.7 to 165 µM)

Question: What about the MIC [6] of the same molecule?
Answer: 12.5 µg/mL

Question: What about the MIC [7] of the same molecule?
Answer: 50 µg/mL

Question: And the MIC ([17]; 72 h)?
Answer: 3.12 to 6.25 µg/mL

Question: And the MIC [8]?
Answer: 0.78 to 0.8 µg/mL

Question: What about the MIC [20] of the same molecule?
Answer: 100 µg/mL

Question: What about the MIC [22] of the same molecule?
Answer: 100 to 200 µg/mL

Question: And the MIC [24]?
Answer: 3.12 µg/mL (≈ 10.3 µM)

Question: And the MIC [10]?
Answer: 100 to 200 µg/mL

Question: And the MIC [11, 28]?
Answer: 200 µg/mL

Question: For `[Cl][Sn]([c]1ccccc1)([c]1ccccc1)[c]1ccccc1` [Fentin Chloride, fentin chloride], which “Independent MIC” value [12] is on record?
Answer: (0.78-3.12) μg/mL

Question: And the “Independent MIC” value [13]?
Answer: (0.78-1) μg/mL

Question: What about the “Independent MIC” value [1, 25] of the same molecule?
Answer: 0.78 µg/mL

Question: And the “Independent MIC” value [3]?
Answer: (1-1.56) μg/mL

Question: And the “Independent MIC” value [4, 25]?
Answer: (10-12.5) μg/mL

Question: And the “Independent MIC” value [15, 27]?
Answer: 12.5 µg/mL

Question: What about the “Independent MIC” value [5] of the same molecule?
Answer: (50-200) μg/mL

Question: And the “Independent MIC” value [16]?
Answer: (0.39-0.78) μg/mL

Question: What about the “Independent MIC” value [21, 25] of the same molecule?
Answer: (12.5-25)^ μg/mL

Question: And the “Independent MIC” value [7]?
Answer: 0.098 µg/mL

Question: What about the “Independent MIC” value [17, 25] of the same molecule?
Answer: (0.78-1) μg/mL

Question: What about the “Independent MIC” value [19, 25] of the same molecule?
Answer: (6.25-12.5) μg/mL

Question: And the “Independent MIC” value [9]?
Answer: (0.1-0.2) μg/mL

Question: And the “Independent MIC” value [23]?
Answer: (0.78-1.56) μg/mL

Question: And the “Independent MIC” value [22]?
Answer: 1.56 µg/mL

Question: What about the “Independent MIC” value [24] of the same molecule?
Answer: 1.25 µg/mL

Question: And the “Independent MIC” value [10]?
Answer: 50 µg/mL

Question: And the “Independent MIC” value [11, 26]?
Answer: (50-100) μg/mL
